Experimental data as given in US5981558A, “DC107 derivatives” (Kyowa Hakko Kogyo Co., Ltd., priority 1996, dated 1999).
Where two headings read alike, the source gives them in different places.

Tested on: HeLa S3 cells
Assay: HeLa S3 Cell Growth Inhibition Test
Assay type: cell-based
Conditions: 72 hours incubation, Neutral Red
Description: In each well of a 96-well microtiter plate was placed 0.1 mL of HeLa S3 cells having a concentration of 8×10^3 cells/mL and prepared in an MEM culture medium containing 10% fetal bovine serum and 2 mM glutamine. After the cells were incubated overnight at 37° C. in a carbon dioxide incubator, a test compound suitably diluted with a medium was added to the wells in an amount of 0.05 mL for each well. The cells were incubated at 37° C. for 72 hours in a carbon dioxide incubator. After the culture supernatant was removed, 0.1 mL of a culture medium containing 0.02% Neutral Red was added to each well. The cells were then incubated at 37° C. for 1 hour in a carbon dioxide incubator to dye the cells. After the culture supernatant was removed, each residue was rinsed once with physiological saline and the pigment was extracted with 0.001 N hydrochloric acid/30% ethanol. The absorbance at 550 nm of each extract was measured with a microplate reader. The drug concentration required for the 50% inhibition of cell growth, which is referred to as IC50, was calculated by comparing the absorbance for untreated cells with those for cells treated with the drug in known concentrations.

[1] = Homo sapiens, HeLa S3, 72 h, read-out: IC50, HeLa S3 cell growth inhibition, HeLa S3
[2] = read-out: IC50, HeLa S3 cell growth inhibition, HeLa S3
[3] = Homo sapiens, HeLa S3, 72 h, HeLa S3, read-out: IC50, HeLa S3 cell growth inhibition

SMILES	IC50 [1] [nM]	also measured
C/C1=C\C(O)C(=O)/C=C/C=C\c2csc(n2)C(C)N2C(=O)CC(C(C)(O)C(=O)SCOC(=O)CCNC(=O)[C@@]34O[C@@H](CO)[C@@H](O)[C@@H]3OC(C)(C)O4)(CC1)[S+]2[O-] (stereo partly drawn) [Compound 59]	1300	–
CC(=O)Oc1ccc(CCCC(=O)OCSC(=O)C(C)(O)C23CC/C(C)=C/C(OC4CCCCO4)C(=O)/C=C/C=C\c4csc(n4)C(C)N(C(=O)C2)[S+]3[O-])cc1 (stereo not drawn) [Compound 56]	0.52	–
C/C1=C\C(OC2CCCCO2)C(=O)/C=C/C=C\c2csc(n2)C(C)N2C(=O)CC(C(C)(O)C(=O)SCc3oc(=O)oc3COC(=O)Oc3ccc([N+](=O)[O-])cc3)(CC1)[S+]2[O-] (stereo not drawn) [Compound 107]	21	–
CC1=CC(O)C(=O)C=CC=Cc2csc(n2)C(C)N2C(=O)CC(C(C)(O)C(=O)SCOC(=O)CCNC(=O)[C@H]3O[C@@H]4OC(C)(C)O[C@@H]4[C@H]4OC(C)(C)O[C@H]43)(CC1)[S+]2[O-] (stereo partly drawn) [Compound 21]	380	–
C/C1=C\C(OC2CCCCO2)C(=O)/C=C/C=C\c2csc(n2)C(C)N2C(=O)CC(C(C)(O)C(=O)SCOC(=O)CNC(=O)[C@@]34O[C@@H](CO)[C@@H](O)[C@@H]3OC(C)(C)O4)(CC1)[S+]2[O-] (single isomer, unassigned) [Compound 63]	–	IC50 [2]: 270 nM
COc1ccc(COCC(=O)OCSC(=O)C(C)(O)C23CCC(C)=CC(O)C(=O)C=CC=Cc4csc(n4)C(C)N(C(=O)C2)[S+]3[O-])cc1 (stereo not drawn) [Compound 13]	–	IC50 [3]: 11 nM
COC(=O)Nc1cccc(C(=O)OCSC(=O)C(C)(O)C23CCC(C)=CC(O)C(=O)C=CC=Cc4csc(n4)C(C)N(C(=O)C2)[S+]3[O-])c1 (stereo not drawn) [Compound 34]	–	IC50 [3]: 55 nM
C/C1=C\C(OC2CCCCO2)C(=O)/C=C/C=C\c2csc(n2)C(C)N2C(=O)CC(C(C)(O)C(=O)SCOC(=O)c3cccc(O)c3)(CC1)[S+]2[O-] (stereo not drawn) [Compound 69]	76	–
COC(=O)CCCCC(=O)OCSC(=O)C(C)(O)C12CCC(C)=CC(O)C(=O)C=CC=Cc3csc(n3)C(C)N(C(=O)C1)[S+]2[O-] (stereo not drawn) [Compound 2]	7.5	–
COC(=O)[C@H](CCC(=O)OCSC(=O)C(C)(O)C12CC/C(C)=C/C(OC3CCCCO3)C(=O)/C=C/C=C\c3csc(n3)C(C)N(C(=O)C1)[S+]2[O-])NC(=O)[C@@]12O[C@@H](CO)[C@@H](O)[C@@H]1OC(C)(C)O2 (single isomer, unassigned) [Compound 66]	–	IC50 (HeLa S3, read-out: IC50, HeLa S3 cell growth inhibition): 48 nM
C/C1=C\C(OC2CCCCO2)C(=O)/C=C/C=C\c2csc(n2)C(C)N2C(=O)CC(C(C)(O)C(=O)SCOC(=O)CNC(=O)[C@@]34O[C@@H](CO)[C@@H](O)[C@@H]3OC(C)(C)O4)(CC1)[S+]2[O-] (single isomer, unassigned) [Compound 62]	–	IC50 [2]: 71 nM
C/C1=C\C(OC2CCCCO2)C(=O)/C=C/C=C\c2csc(n2)C(C)N2C(=O)CC(C(C)(O)C(=O)SCOC(=O)c3ccc(O)cc3)(CC1)[S+]2[O-] (stereo not drawn) [Compound 68]	35	–
CC(=O)Oc1ccc(CCC(=O)OCSC(=O)C(C)(O)C23CCC(C)=CC(O)C(=O)C=CC=Cc4csc(n4)C(C)N(C(=O)C2)[S+]3[O-])cc1 (stereo not drawn) [Compound 32]	–	IC50 [3]: 1.3 nM
CC1=CC(O)C(=O)C=CC=Cc2csc(n2)C(C)N2C(=O)CC(C(C)(O)C(=O)SCOC(=O)CCCN3C(=O)C=CC3=O)(CC1)[S+]2[O-] (stereo not drawn) [Compound 28]	750	–
CC[Si](CC)(CC)OCc1oc(=O)oc1CSC(=O)C(C)(O)C12CC/C(C)=C/C(O)C(=O)/C=C/C=C\c3csc(n3)C(C)N(C(=O)C1)[S+]2[O-] (stereo not drawn) [Compound 75]	–	IC50 (Homo sapiens, HeLa S3, read-out: IC50, HeLa S3 cell growth inhibition): 240 nM
COC(=O)CCC(=O)OCSC(=O)C(C)(O)C12CCC(C)=CC(O)C(=O)C=CC=Cc3csc(n3)C(C)N(C(=O)C1)[S+]2[O-] (stereo not drawn) [Compound 1]	–	IC50 [3]: 7 nM
C/C1=C\C(OC2CCCCO2)C(=O)/C=C/C=C\c2csc(n2)C(C)N2C(=O)CC(C(C)(O)C(=O)SCc3oc(=O)oc3COC(=O)c3cccnc3)(CC1)[S+]2[O-] (stereo not drawn) [Compound 93]	9.2	–
CC1=C(CSC(=O)C(C)(O)C23CC/C(C)=C/C(O)C(=O)/C=C/C=C\c4csc(n4)C(C)N(C(=O)C2)[S+]3[O-])C(=O)OC(C)(C)O1 (stereo not drawn) [Compound 121]	–	IC50 [3]: 1500 nM
